Where two headings read alike, the source gives them in different places.
Experiments:
SARS-CoV-2 = system: SARS-CoV-2; set-up: method as in PMID 35352927; conditions: BALB/cAJcl mice; cited from earlier work
[1] = Multiple-dose pharmacokinetics (part 2, cohorts F, G, H); assay type: in vivo, human; conditions: for GLS mean ratio (90% CI) of AUC0-τ (white/Japanese) / GLS mean ratio (90% CI) of Cmax (white/Japanese): 375/125 mg, cohort H vs F; for Cmax / AUC / Tmax: human, plasma, oral; for Cmax / AUC: geometric mean (%CV); for AUC: read-out: AUC0-τ; for Tmax: median (min, max)
[2] = 375 mg, F/375/125 mg (Japanese), Day 1, fasted
[3] = 375 mg, H/375/125 mg (white), Day 1, fasted
[4] = 750 mg, G/750/250 mg (Japanese), Day 1, fasted
[5] = F/375/125 mg (Japanese), Day 5, fasted
[6] = G/750/250 mg (Japanese), Day 5, fasted
[7] = H/375/125 mg (white), Day 5, fasted

## Cn1cnc(Cn2c(=O)[nH]/c(=N\c3cc4cn(C)nc4cc3Cl)n(Cc3cc(F)c(F)cc3F)c2=O)n1 [Ensitrelvir, ensitrelvir fumaric acid]
SARS-CoV-2
  antiviral activity in mice: dose-dependent antiviral activity
[1]; day 1
  GLS mean ratio (90% CI) of AUC0-τ (white/Japanese): 0.7241 (0.6517–0.8046)
  GLS mean ratio (90% CI) of Cmax (white/Japanese): 0.7699 (0.6738–0.8796)
  GLS mean ratio (90% CI) of AUC0-τ, cohort G [750/250 mg] versus F [375/125 mg]: 1.6893 (1.4492–1.9692)
  GLS mean ratio (90% CI) of Cmax, cohort G [750/250 mg] versus F [375/125 mg]: 1.5185 (1.2747–1.8089)
[1]; day 5
  GLS mean ratio (90% CI) of AUC0-τ (white/Japanese): 0.8645 (0.7740–0.9656)
  GLS mean ratio (90% CI) of Cmax (white/Japanese): 0.8651 (0.7774–0.9627)
  GLS mean ratio (90% CI) of AUC0-τ, cohort G [750/250 mg] versus F [375/125 mg]: 2.2387 (1.9942–2.5132)
  GLS mean ratio (90% CI) of Cmax, cohort G [750/250 mg] versus F [375/125 mg]: 2.1781 (1.9460–2.4379)
[1]; [2]
  Cmax: 29500 ng/mL
  AUC: 484 µg·h/mL
  Tmax: 1.5 h
[1]; [3]
  Cmax: 22700 ng/mL
  AUC: 351 µg·h/mL
  Tmax: 1.75 h
[1]; [4]
  Cmax: 44800 ng/mL
  AUC: 818 µg·h/mL
  Tmax: 3 h
[1]; [5]
  Cmax: 30400 ng/mL
  AUC: 597 µg·h/mL
  Tmax: 2 h
[1]; [6]
  Cmax: 66300 ng/mL
  AUC: 1340 µg·h/mL
  Tmax: 2.5 h
[1]; [7]
  Cmax: 26300 ng/mL
  AUC: 516 µg·h/mL
  Tmax: 1.5 h

Reference: PMC9578392, “Safety, Tolerability, and Pharmacokinetics of the Novel Antiviral Agent Ensitrelvir Fumaric Acid, a SARS-CoV-2 3CL Protease Inhibitor, in Healthy Adults” (Antimicrobial Agents and Chemotherapy, 2022)
